Structures are written as SMILES. “And” between values parts separate entries of the source, which are not always exact repeats. Equal entries are not always repeated.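 Following 48 hours of exposure in 96-well plates, responses at five concentrations were used to interpolate endpoints linearly. GI50: concentration for 50% inhibition of growth. Definition used: TGI = concentration required for complete inhibition of growth.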 Bounds are passed on as bounds.

Some test systems named below: 786-0 renal; HOP-62 NSCLC; OVCAR-8 ovarian; A549 NSCLC; SK-MEL-28 melanoma; PC-3 prostate; BT-549 breast; SN12C renal; K-562 leukemia; ACHN renal.
What all share (experiment): NCI anticancer screen, dose series, 48 h

Consider `O=C(CNc1ncco1)Nc1ccc(S(=O)(=O)c2ccc(NC(=O)CNc3ncco3)cc2)cc1`, for which the GI50 in the assay with 786-0 renal was 3.95 µM; in the assay on HOP-62 NSCLC, 2.07 µM; with OVCAR-8 ovarian, 2.4 µM; with A549 NSCLC, 2.2 µM; in the assay on SK-MEL-28 melanoma, 2.38 µM; in the assay on PC-3 prostate it was 2.49 µM. Also, the GI50 in the assay with BT-549 breast was 2.09 µM; in the assay with SN12C renal, 3.77 µM; in the assay on K-562 leukemia, 2 µM; with ACHN renal, 2.23 µM. Further, the TGI in the assay with 786-0 renal came out at 18.3 µM; in the assay on HOP-62 NSCLC it was 4.09 µM; in the assay on OVCAR-8 ovarian, 15.7 µM; with A549 NSCLC it was 6.42 µM; with SK-MEL-28 melanoma, 5.51 µM; in the assay with PC-3 prostate, 8.32 µM. Also, the TGI in the assay with BT-549 breast is 6.26 µM; with SN12C renal, 14.7 µM; in the assay with K-562 leukemia it was 5.95 µM; in the assay on ACHN renal, 6.23 µM.
As to `NC(=S)N/N=C\c1nccc2c(N)cccc12`, the GI50 was 0.163 µM with 786-0 renal; 0.352 µM with HOP-62 NSCLC; 0.222 µM in the assay with OVCAR-8 ovarian; 0.484 µM in the assay with A549 NSCLC; 1.16 µM in the assay with SK-MEL-28 melanoma; 0.452 µM with PC-3 prostate. Moreover, the GI50 with BT-549 breast was 0.836 µM; in the assay on SN12C renal, 0.314 µM; in the assay on K-562 leukemia, 0.497 µM; in the assay on ACHN renal, 0.0977 µM. Further, the TGI is 0.737 µM with 786-0 renal; more than 22 µM in the assay on HOP-62 NSCLC; more than 27 µM with A549 NSCLC; more than 100 µM with SK-MEL-28 melanoma; more than 100 µM with PC-3 prostate; more than 100 µM with BT-549 breast. Besides, the TGI in the assay on SN12C renal is more than 39.5 µM; with K-562 leukemia it was more than 100 µM.
Take `Cc1nc2cc(Nc3nc(Nc4ccc(F)cc4)nc(N4CCN(C)CC4)n3)ccc2n1Cc1ccccc1`: the GI50 in the assay with 786-0 renal was 1.54 µM; in the assay with HOP-62 NSCLC it was 1.85 µM; in the assay with OVCAR-8 ovarian, 2.02 µM; with A549 NSCLC, 1.51 µM; in the assay with SK-MEL-28 melanoma it was 1.73 µM; in the assay with PC-3 prostate it was 2.04 µM. In addition, the GI50 in the assay with BT-549 breast was 1.73 µM; with SN12C renal, 1.67 µM; in the assay with K-562 leukemia it was 1.34 µM; in the assay with ACHN renal, 1.87 µM. Also, the TGI in the assay with 786-0 renal is 3.32 µM; with HOP-62 NSCLC, 3.65 µM; with OVCAR-8 ovarian it was 5.49 µM; with A549 NSCLC, 3.15 µM; in the assay with SK-MEL-28 melanoma it was 3.16 µM; with PC-3 prostate, 5.4 µM. Further, the TGI is 3.44 µM in the assay with BT-549 breast, 3.34 µM in the assay with SN12C renal, 5.29 µM in the assay on K-562 leukemia and 3.83 µM in the assay with ACHN renal.
In the case of `O=C1C(=O)c2ccccc2C(O)=C1CC=C(Cl)Cl`, the GI50 is 4.63 µM and 13.4 µM with 786-0 renal; 9.44 µM and 14 µM in the assay on HOP-62 NSCLC; 6.49 µM and 4.81 µM in the assay on OVCAR-8 ovarian; 5.63 µM in the assay on A549 NSCLC; 9.5 µM and 16.4 µM in the assay with SK-MEL-28 melanoma; 4.7 µM and 2.85 µM in the assay on PC-3 prostate. Also, the GI50 was 16.3 µM and 27.1 µM in the assay with BT-549 breast; 5.92 µM in the assay with SN12C renal; 0.987 µM and 3.19 µM with K-562 leukemia; 3.48 µM and 7.5 µM in the assay on ACHN renal. For the same molecule, the TGI is > 68.9 µM and 250 µM and > 100 µM in the assay on 786-0 renal; 64.1 µM and 61 µM and > 100 µM in the assay on HOP-62 NSCLC; 206 µM and > 100 µM in the assay on OVCAR-8 ovarian; > 78.7 µM and 129 µM and > 100 µM in the assay on A549 NSCLC; 60.4 µM and 161 µM and > 100 µM in the assay with SK-MEL-28 melanoma; > 48.8 µM and 134 µM and 72.9 µM in the assay on PC-3 prostate. Moreover, the TGI in the assay with BT-549 breast is 94.6 µM and 139 µM and > 100 µM; in the assay with SN12C renal, > 86.9 µM and 137 µM and > 100 µM; with K-562 leukemia, > 41.5 µM and 175 µM and > 100 µM; in the assay on ACHN renal, 23 µM and 187 µM and > 100 µM.
Regarding `CCCCCCC#CC#Cc1cccc(=O)o1`, the GI50 in the assay with 786-0 renal is 0.991 µM; with HOP-62 NSCLC it was 2.65 µM; in the assay with OVCAR-8 ovarian, 1.14 µM; in the assay on A549 NSCLC, 9.24 µM; with SK-MEL-28 melanoma, 3.22 µM; in the assay with PC-3 prostate, 2.67 µM. Also, the GI50 with BT-549 breast was 0.556 µM; with SN12C renal, 1.31 µM; in the assay with K-562 leukemia, 7.33 µM; with ACHN renal, 1.84 µM. Besides, the TGI with 786-0 renal came to 2.72 µM; in the assay with HOP-62 NSCLC, 8.48 µM; in the assay on OVCAR-8 ovarian, 5.47 µM; in the assay on A549 NSCLC, 30.7 µM; in the assay on SK-MEL-28 melanoma, 10.7 µM; in the assay with PC-3 prostate, 8.36 µM. The TGI in the assay on BT-549 breast is 2.7 µM; in the assay with SN12C renal, 2.97 µM; in the assay on K-562 leukemia it was more than 100 µM; in the assay with ACHN renal, 3.96 µM.
Consider `C(=C\c1nccc2c1[nH]c1ccccc12)/c1ccccc1`, for which the GI50 was 3.49 µM with 786-0 renal; 2.97 µM in the assay with HOP-62 NSCLC; 4.69 µM with OVCAR-8 ovarian; 4.09 µM with A549 NSCLC; 4.78 µM with SK-MEL-28 melanoma; 2.82 µM in the assay with PC-3 prostate. For the same molecule, the GI50 in the assay with BT-549 breast is 2.22 µM; in the assay with SN12C renal it was 3.83 µM; in the assay on K-562 leukemia, 2.25 µM; in the assay on ACHN renal it was 4.82 µM. For the same molecule, the TGI was 10.7 µM in the assay on 786-0 renal; 22.3 µM in the assay with HOP-62 NSCLC; more than 100 µM with OVCAR-8 ovarian; more than 100 µM in the assay on A549 NSCLC; 28.4 µM in the assay with SK-MEL-28 melanoma; more than 100 µM with PC-3 prostate. Also, the TGI in the assay on BT-549 breast turned out to be 10.2 µM; in the assay with SN12C renal it was 76.7 µM; with K-562 leukemia it was 37.2 µM; in the assay with ACHN renal it was 20.8 µM.
For the molecule `COc1cc(C2=NN(c3ccc(S(N)(=O)=O)cc3)C(c3ccc(Cl)cc3)C2)cc(OC)c1OC` (stereo unspecified), the GI50 in the assay with 786-0 renal is 6.43 µM; with HOP-62 NSCLC, 5.8 µM; in the assay on OVCAR-8 ovarian, 4.85 µM; with A549 NSCLC, 4 µM; in the assay with SK-MEL-28 melanoma, 3.78 µM; in the assay with PC-3 prostate, 3.05 µM. Further, the GI50 in the assay on BT-549 breast is 3.8 µM; in the assay with SN12C renal, 6.67 µM; with K-562 leukemia, 5.67 µM; in the assay on ACHN renal it was 2.62 µM. Moreover, the TGI in the assay with 786-0 renal, with HOP-62 NSCLC, in the assay on OVCAR-8 ovarian, in the assay with A549 NSCLC, in the assay with SK-MEL-28 melanoma and in the assay on PC-3 prostate was more than 100 µM each time. Besides, the TGI is 46.4 µM in the assay on BT-549 breast, more than 100 µM with SN12C renal, more than 100 µM in the assay on K-562 leukemia and 9.27 µM in the assay with ACHN renal.
On to `Cc1cc(C)c2c(SCc3ccc(Cl)cc3Cl)nc(N)nc2n1`, for which the TGI in the assay on 786-0 renal is 41.8 µM; in the assay on HOP-62 NSCLC, more than 100 µM; in the assay with OVCAR-8 ovarian it was more than 100 µM; with A549 NSCLC, more than 100 µM; with SK-MEL-28 melanoma it was more than 100 µM; with PC-3 prostate it was more than 100 µM. The TGI in the assay on BT-549 breast is more than 100 µM; in the assay with SN12C renal, 60.7 µM; with K-562 leukemia, 97.1 µM; in the assay on ACHN renal, more than 100 µM.
Turning to `COc1ccc(CC(NC(=O)[C@H](C)NC(=O)CN2CCOCC2)C(=O)N[C@@H](Cc2ccccc2)C(=O)[C@@]2(C)CO2)cc1` (stereo partly specified), the GI50 with 786-0 renal is 0.364 µM; in the assay with HOP-62 NSCLC, 0.191 µM; with OVCAR-8 ovarian, 0.342 µM; in the assay on A549 NSCLC it was 0.461 µM; with SK-MEL-28 melanoma it was 0.215 µM; with PC-3 prostate, 0.229 µM. The GI50 in the assay with BT-549 breast is 0.154 µM; with SN12C renal, 0.263 µM; in the assay on K-562 leukemia, 0.268 µM; in the assay on ACHN renal it was 0.801 µM. The TGI with 786-0 renal is 1.76 µM; with HOP-62 NSCLC, 0.453 µM; in the assay with A549 NSCLC, more than 22.9 µM; in the assay on SK-MEL-28 melanoma it was 0.586 µM; in the assay on PC-3 prostate it was 0.631 µM; with BT-549 breast it was 0.391 µM. The TGI with SN12C renal was 1.53 µM; in the assay with ACHN renal it was more than 33.5 µM.
On to `COc1cc(NCc2ccccc2O)c2ncccc2c1`, for which the GI50 with 786-0 renal is 29.8 µM; in the assay on HOP-62 NSCLC it was 19.7 µM; in the assay with OVCAR-8 ovarian, 25.4 µM; in the assay on A549 NSCLC, 49.1 µM; in the assay with SK-MEL-28 melanoma it was 21.3 µM; in the assay with PC-3 prostate it was 10.6 µM. In addition, the GI50 was 16.6 µM in the assay on BT-549 breast, 34 µM with SN12C renal, 17.2 µM in the assay on K-562 leukemia and 26.8 µM with ACHN renal. Besides, the TGI is more than 100 µM in the assay with 786-0 renal; more than 100 µM in the assay on HOP-62 NSCLC; more than 100 µM with OVCAR-8 ovarian; more than 100 µM with A549 NSCLC; 80.2 µM in the assay on SK-MEL-28 melanoma; 90.6 µM in the assay on PC-3 prostate. In addition, the TGI in the assay with BT-549 breast was 55 µM; with SN12C renal it was more than 100 µM; in the assay with K-562 leukemia, more than 100 µM; with ACHN renal, more than 100 µM.
For the molecule `CCc1c(O)c2c(c(O)c1C(C)=O)C(=O)c1c(cc(O)c(C(=O)O)c1C(=O)O)C2=O`, the TGI in the assay on 786-0 renal, in the assay on HOP-62 NSCLC, in the assay with OVCAR-8 ovarian, with A549 NSCLC, in the assay on SK-MEL-28 melanoma and in the assay on PC-3 prostate was more than 100 µM throughout. Moreover, the TGI in the assay on BT-549 breast, with SN12C renal, with K-562 leukemia and in the assay with ACHN renal was more than 100 µM each time.
In the case of `CC(=O)c1cc2c(c3ccsc13)-c1ccccc1CC2`, the GI50 in the assay on 786-0 renal was 35.2 µM; in the assay with HOP-62 NSCLC it was 36.4 µM; with OVCAR-8 ovarian, 53.1 µM; with A549 NSCLC, 35.7 µM; with SK-MEL-28 melanoma it was more than 100 µM; in the assay on PC-3 prostate it was 27.9 µM. Also, the GI50 in the assay with BT-549 breast is 37 µM; in the assay with SN12C renal, 34.7 µM; in the assay with K-562 leukemia it was 14.3 µM; in the assay on ACHN renal, 45.5 µM. For the same molecule, the TGI in the assay on 786-0 renal, in the assay on HOP-62 NSCLC, in the assay on OVCAR-8 ovarian, in the assay with A549 NSCLC, in the assay on SK-MEL-28 melanoma and in the assay on PC-3 prostate was more than 100 µM each time. In addition, the TGI was more than 100 µM with BT-549 breast, more than 100 µM in the assay on SN12C renal, 90.5 µM in the assay on K-562 leukemia and more than 100 µM with ACHN renal.

These data come from PubChem BioAssay (NCI).
